Measurements taken from patent US11053204B2, “Pyrimidinyloxy benzene derivatives as herbicides” (FMC Corporation, priority 2015, dated 2021).

Legend:
Type in all cases: in vivo
[1] = test system: crabgrass, large (large crabgrass, Digitaria sanguinalis); assay: Test C preemergence, plant response rating; details: Digitaria sanguinalis, pre-emergence, Preemergence
Method in brief: (§1)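 Pre-emergence: seeds sown in loam soil–sand blend or silt loam and sprayed with test chemicals in a non-phytotoxic solvent mixture with surfactant. Post-emergence: plants 2 to 18 cm (1- to 4-leaf stage) in peat-based potting medium, same formulation. Greenhouse 13 to 15 d; visual rating 0 (no effect) to 100 (complete control) versus controls.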

[2] = test system: lambsquarters (Chenopodium album); assay: Test C preemergence, plant response rating; details: Chenopodium album, pre-emergence, Preemergence
Method in brief: as §1

[3] = test system: morningglory (Ipomoea coccinea); assay: Test C preemergence, plant response rating; details: Ipomoea, pre-emergence, Preemergence
Method in brief: as §1

[4] = test system: wheat (winter wheat, Triticum aestivum); assay: Test C preemergence, plant response rating; details: Triticum aestivum, pre-emergence, Preemergence
Method in brief: as §1

[5] = test system: oilseed rape (Brassica napus); assay: Test C preemergence, plant response rating; details: Brassica napus, pre-emergence, Preemergence
Method in brief: as §1

corn (Zea mays) [6] = assay: Test C preemergence, plant response rating; details: Zea mays, pre-emergence, Preemergence
Method in brief: as §1

soybean (Glycine max) [7] = assay: Test C preemergence, plant response rating; details: Glycine max, pre-emergence, Preemergence
Method in brief: as §1

[8] = test system: velvetleaf (Abutilon theophrasti); assay: Test C preemergence, plant response rating; details: Abutilon theophrasti, pre-emergence, Preemergence
Method in brief: as §1

[9] = test system: ryegrass, Italian (Italian ryegrass, Lolium multiflorum); assay: Test C preemergence, plant response rating; details: Lolium multiflorum, pre-emergence, Preemergence
Method in brief: as §1

[10] = test system: foxtail, giant (giant foxtail, Setaria faberii); assay: Test C preemergence, plant response rating; details: Setaria faberi, pre-emergence, Preemergence
Method in brief: as §1

[11] = test system: waterhemp (common waterhemp, Amaranthus rudis); assay: Test C preemergence, plant response rating; details: Amaranthus tuberculatus, pre-emergence, Preemergence
Method in brief: as §1

[12] = test system: blackgrass (Alopecurus myosuroides); assay: Test C preemergence, plant response rating; details: Alopecurus myosuroides, pre-emergence, Preemergence
Method in brief: as §1

[13] = test system: nutsedge, yellow (yellow nutsedge, Cyperus esculentus); assay: Test C preemergence, plant response rating; details: Cyperus, pre-emergence, Preemergence
Method in brief: as §1

[14] = test system: crabgrass, large (large crabgrass, Digitaria sanguinalis); assay: Test C postemergence, plant response rating; details: Digitaria sanguinalis, post-emergence
Description: (§2) Seeds of plant species selected from blackgrass (Alopecurus myosuroides), ryegrass, Italian (Italian ryegrass, Lolium multiflorum), wheat (winter wheat, Triticum aestivum), galium (catchweed bedstraw, Galium aparine), corn (Zea mays), crabgrass, large (large crabgrass, Digitaria sanguinalis), foxtail, giant (giant foxtail, Setaria faberii), johnsongrass (Sorghum halepense), lambsquarters (Chenopodium album), morningglory (Ipomoea coccinea), nutsedge, yellow (yellow nutsedge, Cyperus esculentus), pigweed (Amaranthus retroflexus), ragweed (common ragweed, Ambrosia elatior), soybean (Glycine max), barnyardgrass (Echinochloa crus-galli), oilseed rape (Brassica napus), pigweed, palmer (palmer pigweed, Amaranthus palmeri), waterhemp (common waterhemp, Amaranthus rudis), velvetleaf (Abutilon theophrasti), kochia (Kochia scoparia), surinam grass (Brachiaria decumbens), nightshade (eastern black nightshade, Solanum ptycanthum), wild poinsettia (Euphorbia heterophylla), windgrass (Apera spica-venti), and oat, wild (wild oat Avena fatua), were planted into a blend of loam soil and sand or a silt loam soil and treated preemergence with test chemicals formulated in a non-phytotoxic solvent mixture which included a surfactant.
(§3) At the same time, plants selected from these crop and weed species and also chickweed (common chickweed, Stellaria media), buckwheat, wild (wild buckwheat, Polygonum convolvulus), wild mustard (Sinapis arvensis), field poppy (Papaver rhoeas), field violet (Viola arvensis), geranium, cutleaf (cutleaf geranium, Geranium dissectum), Canada thistle (Cirsium arvense), and speedwell (bird's-eye speedwell, Veronica persica), were planted in pots containing Sunshine Redi-Earth® planting medium comprising spaghnum peat moss, vermiculite, starter nutrients and dolomitic limestone and treated with postemergence applications of test chemicals formulated in the same manner. Plants ranged in height from 2 to 18 cm (1- to 4-leaf stage) for postemergence treatments. Treated plants and controls were maintained in a greenhouse for 13 to 15 d, after which time all species were compared to controls and visually evaluated. Plant response ratings, summarized in Table C, are based on a scale of 0 to 100 where 0 is no effect and 100 is complete control. A dash (-) response means no test result.

[15] = test system: galium (catchweed bedstraw, Galium aparine); assay: Test C postemergence, plant response rating; details: Galium, post-emergence
Description: as §2, §3

[16] = test system: oilseed rape (Brassica napus); assay: Test C postemergence, plant response rating; details: Brassica napus, post-emergence
Description: as §2, §3

corn (Zea mays) [17] = assay: Test C postemergence, plant response rating; details: Zea mays, post-emergence
Description: as §2, §3

soybean (Glycine max) [18] = assay: Test C postemergence, plant response rating; details: Glycine max, post-emergence
Description: as §2, §3

[19] = test system: foxtail, giant (giant foxtail, Setaria faberii); assay: Test C postemergence, plant response rating; details: Setaria faberi, post-emergence
Description: as §2, §3

kochia (Kochia scoparia) = assay: Test C postemergence, plant response rating; details: Bassia scoparia, post-emergence
Description: as §2, §3

[20] = 62 g ai/ha, scale 0 to 100 (0 no effect, 100 complete control)
[21] = 125 g ai/ha, scale 0 to 100 (0 no effect, 100 complete control)

## CC(CC(F)(F)F)OC(=O)c1c(Br)cccc1Oc1ncc(Cl)cn1 (centres unmarked) [Compound 16, 3,3,3-trifluoro-1-methylpropyl 2-bromo-6-[(5-chloro-2-pyrimidinyl)oxy]benzoate]
[1]; 62 g ai/ha, scale of 0 to 100
  pest or weed control at 62 g/ha: 90%
[1]; 125 g ai/ha, scale of 0 to 100
  pest or weed control at 125 g/ha: 100%
[1]; 16 g ai/ha, scale 0 to 100
  pest or weed control at 16 g/ha: 5%
[1]; 31 g ai/ha, scale 0 to 100
  pest or weed control at 31 g/ha: 75%
[2]; 125 g ai/ha, scale of 0 to 100
  pest or weed control at 125 g/ha: 50%
[2]; 16 g ai/ha, scale 0 to 100
  pest or weed control at 16 g/ha: 0%
[2]; 31 g ai/ha, scale 0 to 100
  pest or weed control at 31 g/ha: 20%
[2]; 62 g ai/ha, scale 0 to 100
  pest or weed control at 62 g/ha: 20%
[3]; 125 g ai/ha, scale of 0 to 100
  pest or weed control at 125 g/ha: 25%
[3]; 16 g ai/ha, scale 0 to 100
  pest or weed control at 16 g/ha: 10%
[3]; 31 g ai/ha, scale 0 to 100
  pest or weed control at 31 g/ha: 0%
[3]; 62 g ai/ha, scale 0 to 100
  pest or weed control at 62 g/ha: 25%
[4]; 125 g ai/ha, scale of 0 to 100
  plant injury at 125 g/ha: 0%
[4]; 16 g ai/ha, scale 0 to 100
  plant injury at 16 g/ha: 0%
[4]; 31 g ai/ha, scale 0 to 100
  plant injury at 31 g/ha: 0%
[4]; 62 g ai/ha, scale 0 to 100
  plant injury at 62 g/ha: 0%
[5]; 125 g ai/ha, scale of 0 to 100
  plant injury at 125 g/ha: 100%
[5]; 16 g ai/ha, scale 0 to 100
  plant injury at 16 g/ha: 0%
[5]; 31 g ai/ha, scale 0 to 100
  plant injury at 31 g/ha: 50%
[5]; 62 g ai/ha, scale 0 to 100
  plant injury at 62 g/ha: 60%
Corn (Zea mays) [6]; 62 g ai/ha, scale of 0 to 100
  Corn plant response rating (crop injury, 0 = no effect, 100 = complete kill) at 62 g/ha: 0%
Corn (Zea mays) [6]; 125 g ai/ha, scale of 0 to 100
  Corn plant response rating (crop injury, 0 = no effect, 100 = complete kill) at 125 g/ha: 10%
Corn (Zea mays) [6]; 16 g ai/ha, scale 0 to 100
  Corn plant response rating (crop injury, 0 = no effect, 100 = complete kill) at 16 g/ha: 0%
Corn (Zea mays) [6]; 31 g ai/ha, scale 0 to 100
  Corn plant response rating (crop injury, 0 = no effect, 100 = complete kill) at 31 g/ha: 0%
Soybean (Glycine max) [7]; 125 g ai/ha, scale of 0 to 100
  plant injury at 125 g/ha: 5%
Soybean (Glycine max) [7]; 16 g ai/ha, scale 0 to 100
  plant injury at 16 g/ha: 0%
Soybean (Glycine max) [7]; 31 g ai/ha, scale 0 to 100
  plant injury at 31 g/ha: 0%
Soybean (Glycine max) [7]; 62 g ai/ha, scale 0 to 100
  plant injury at 62 g/ha: 0%
[8]; 125 g ai/ha, scale of 0 to 100
  pest or weed control at 125 g/ha: 75%
[8]; 16 g ai/ha, scale 0 to 100
  pest or weed control at 16 g/ha: 0%
[8]; 31 g ai/ha, scale 0 to 100
  pest or weed control at 31 g/ha: 5%
[8]; 62 g ai/ha, scale 0 to 100
  pest or weed control at 62 g/ha: 50%
[9]; 125 g ai/ha, scale of 0 to 100
  pest or weed control at 125 g/ha: 5%
[9]; 16 g ai/ha, scale 0 to 100
  pest or weed control at 16 g/ha: 0%
[9]; 31 g ai/ha, scale 0 to 100
  pest or weed control at 31 g/ha: 0%
[9]; 62 g ai/ha, scale 0 to 100
  pest or weed control at 62 g/ha: 5%
[10]; 62 g ai/ha, scale of 0 to 100
  pest or weed control at 62 g/ha: 90%
[10]; 125 g ai/ha, scale of 0 to 100
  pest or weed control at 125 g/ha: 100%
[10]; 16 g ai/ha, scale 0 to 100
  pest or weed control at 16 g/ha: 5%
[10]; 31 g ai/ha, scale 0 to 100
  pest or weed control at 31 g/ha: 25%
[11]; 125 g ai/ha, scale of 0 to 100
  pest or weed control at 125 g/ha: 100%
[11]; 16 g ai/ha, scale 0 to 100
  pest or weed control at 16 g/ha: 10%
[11]; 31 g ai/ha, scale 0 to 100
  pest or weed control at 31 g/ha: 60%
[11]; 62 g ai/ha, scale 0 to 100
  pest or weed control at 62 g/ha: 85%
[12]; 62 g ai/ha, scale of 0 to 100
  pest or weed control at 62 g/ha: 5%
[12]; 125 g ai/ha, scale of 0 to 100
  pest or weed control at 125 g/ha: 10%
[12]; 16 g ai/ha, scale 0 to 100
  pest or weed control at 16 g/ha: 0%
[12]; 31 g ai/ha, scale 0 to 100
  pest or weed control at 31 g/ha: 0%
[13]; 125 g ai/ha, scale of 0 to 100
  pest or weed control at 125 g/ha: 0%
[13]; 16 g ai/ha, scale 0 to 100
  pest or weed control at 16 g/ha: 0%
[13]; 31 g ai/ha, scale 0 to 100
  pest or weed control at 31 g/ha: 0%
[13]; 62 g ai/ha, scale 0 to 100
  pest or weed control at 62 g/ha: 0%
[14]; 16 g ai/ha, scale 0 to 100
  pest or weed control at 16 g/ha: 10%
[14]; 31 g ai/ha, scale 0 to 100
  pest or weed control at 31 g/ha: 15%
[14]; [20]
  pest or weed control at 62 g/ha: 25%
[14]; [21]
  pest or weed control at 125 g/ha: 25%
[15]; 16 g ai/ha, scale 0 to 100
  pest or weed control at 16 g/ha: 45%
[15]; 31 g ai/ha, scale 0 to 100
  pest or weed control at 31 g/ha: 50%
[15]; [20]
  pest or weed control at 62 g/ha: 55%
[15]; [21]
  pest or weed control at 125 g/ha: 55%
[16]; 16 g ai/ha, scale 0 to 100
  plant injury at 16 g/ha: 15%
[16]; 31 g ai/ha, scale 0 to 100
  plant injury at 31 g/ha: 35%
[16]; [20]
  plant injury at 62 g/ha: 60%
[16]; [21]
  plant injury at 125 g/ha: 70%
Corn (Zea mays) [17]; 16 g ai/ha, scale 0 to 100
  Corn plant response rating (crop injury, 0 = no effect, 100 = complete kill) at 16 g/ha: 5%
Corn (Zea mays) [17]; 31 g ai/ha, scale 0 to 100
  Corn plant response rating (crop injury, 0 = no effect, 100 = complete kill) at 31 g/ha: 15%
Corn (Zea mays) [17]; [20]
  plant injury at 62 g/ha: 15%
Corn (Zea mays) [17]; [21]
  plant injury at 125 g/ha: 20%
Soybean (Glycine max) [18]; 16 g ai/ha, scale 0 to 100
  plant injury at 16 g/ha: 15%
Soybean (Glycine max) [18]; 31 g ai/ha, scale 0 to 100
  plant injury at 31 g/ha: 35%
Soybean (Glycine max) [18]; [20]
  plant injury at 62 g/ha: 50%
Soybean (Glycine max) [18]; [21]
  plant injury at 125 g/ha: 50%
[19]; 16 g ai/ha, scale 0 to 100
  pest or weed control at 16 g/ha: 10%
[19]; 31 g ai/ha, scale 0 to 100
  pest or weed control at 31 g/ha: 20%
[19]; [20]
  pest or weed control at 62 g/ha: 30%
[19]; [21]
  pest or weed control at 125 g/ha: 35%
Kochia (Kochia scoparia); 16 g ai/ha, scale 0 to 100
  pest or weed control at 16 g/ha: 40%
Kochia (Kochia scoparia); 31 g ai/ha, scale 0 to 100
  pest or weed control at 31 g/ha: 50%
Kochia (Kochia scoparia); [20]
  pest or weed control at 62 g/ha: 80%
Kochia (Kochia scoparia); [21]
  pest or weed control at 125 g/ha: 90%
